Data reported in the supplement of paper PMC9013687.

Experiments:
Danio rerio embryo [1] = assay: EC50 Pericard size_Increase
Protocol: (§1)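 Zebrafish embryos (UFZ-OBI strain) were exposed from 2 hpf for 48 h (2 dpf) or 96 h (4 dpf) at 28 °C; spontaneous tail coiling was scored at 25 hpf. Morphological features from automated image analysis (FishInspector), heart rate and locomotor response were fitted with drc models. Quantal endpoints were dichotomised at 2.5 SD from controls and fitted with a log-logistic model; heart rate, pigmentation and STC were normalised to the replicate control mean. Betamethasone was tested as betamethasone dipropionate, diflorasone as diflorasone diacetate.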

Danio rerio embryo [2] = assay: EC20 Pigmentation decrease; higher = less potent; conditions: exposure time: 4 dpf
Protocol: as §1

Danio rerio embryo [3] = assay: EC10 Pericard size_Increase; higher = less potent
Protocol: as §1

Danio rerio embryo [4] = assay: EC20 Any effect; higher = less potent
Protocol: as §1

Danio rerio embryo [5] = assay: EC10 Any effect; higher = less potent; conditions: exposure time: 2 dpf
Protocol: as §1

Danio rerio embryo [6] = assay: EC20 Pericard size_Increase; higher = less potent
Protocol: as §1

Danio rerio embryo [7] = assay: EC10 Pigmentation decrease; higher = less potent; conditions: exposure time: 4 dpf
Protocol: as §1

Danio rerio embryo [8] = assay: spontaneous tail coiling frequency (coils/min/embryo); higher = more spontaneous movement; conditions: 25 hpf
Protocol: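 Spontaneous tail coilings of zebrafish embryos exposed from 2 hpf were recorded at 24-25 hpf in 1-min videos and detected by a KNIME workflow from grey-value variance. Betamethasone was tested as the dipropionate, diflorasone as the diacetate.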

Danio rerio embryo [9] = tested on: Danio rerio embryo
Protocol: as §1

Danio rerio embryo [10] = assay: EC20 Eye-jaw distance_Decrease; higher = less potent; conditions: exposure time: 4 dpf
Protocol: as §1

Danio rerio embryo [11] = assay: EC50 Eye-jaw distance_Decrease; conditions: exposure time: 4 dpf
Protocol: as §1

Danio rerio embryo [12] = assay: EC10 Eye-jaw distance_Decrease; higher = less potent; conditions: exposure time: 4 dpf
Protocol: as §1

Danio rerio embryo [13] = assay: EC20 Bladder size_Decrease; higher = less potent; conditions: exposure time: 4 dpf
Protocol: as §1

Danio rerio embryo [14] = assay: EC50 Bladder size_Decrease; conditions: exposure time: 4 dpf
Protocol: as §1

Danio rerio embryo [15] = conditions: exposure time: 4 dpf
Protocol: as §1

Danio rerio embryo [16] = assay: EC10 Bladder size_Decrease; higher = less potent; conditions: exposure time: 4 dpf
Protocol: as §1

Danio rerio embryo [17] = assay: EC10 Lack of SB; higher = less potent; conditions: exposure time: 4 dpf
Protocol: as §1

Danio rerio embryo [18] = assay: EC20 Lack of SB; higher = less potent; conditions: exposure time: 4 dpf
Protocol: as §1

CCC(=O)OCC(=O)[C@@]1(OC(=O)CC)[C@@H](C)C[C@H]2[C@@H]3CCC4=CC(=O)C=C[C@]4(C)[C@@]3(F)[C@@H](O)C[C@@]21C [betamethasone dipropionate]
Conditions | EC10 Pericard size Increase [nM] | EC20 Any effect [nM] | EC20 Pericard size Increase [nM] | EC50 Any effect [nM] | EC50 Pericard size Increase [nM] | spontaneous tail coiling frequency
Danio rerio embryo [1], exposure time: 2 dpf | – | – | – | – | 10100 | –
Danio rerio embryo [1], exposure time: 4 dpf | – | – | – | – | 1350 | –
Danio rerio embryo [3], exposure time: 2 dpf | 70 | – | – | – | – | –
Danio rerio embryo [4], exposure time: 2 dpf | – | 4.31 | – | – | – | –
Danio rerio embryo [4], exposure time: 4 dpf | – | 0.298 | – | – | – | –
Danio rerio embryo [6], exposure time: 2 dpf | – | – | 437 | – | – | –
Danio rerio embryo [6], exposure time: 4 dpf | – | – | 0.209 | – | – | –
Danio rerio embryo [8], 0.02 µM | – | – | – | – | – | 2.32
Danio rerio embryo [8], 0.099 µM | – | – | – | – | – | 1.86
Danio rerio embryo [8], 0.198 µM | – | – | – | – | – | 2.45
Danio rerio embryo [8], 0.991 µM | – | – | – | – | – | 3.42
Danio rerio embryo [8], 1.24 µM | – | – | – | – | – | 3.65
Danio rerio embryo [8], 2.48 µM | – | – | – | – | – | 4
Danio rerio embryo [8], 3.964 µM | – | – | – | – | – | 2.3
Danio rerio embryo [8], 4.95 µM | – | – | – | – | – | 3.4
Danio rerio embryo [8], 9.909 µM | – | – | – | – | – | 1.97
Danio rerio embryo [8], 9.91 µM | – | – | – | – | – | 3.29
Danio rerio embryo [8], 19.82 µM | – | – | – | – | – | 3.34
Danio rerio embryo [9], exposure time: 2 dpf | – | – | – | 882 | – | –
Danio rerio embryo [9], exposure time: 4 dpf | – | – | – | 253 | – | –

Conditions | EC10 Any effect [nM] | EC10 Eye-jaw distance Decrease [nM] | EC10 Pigmentation decrease [nM] | EC20 Eye-jaw distance Decrease [nM] | EC20 Pigmentation decrease [nM] | EC50 Eye-jaw distance Decrease [nM]
Danio rerio embryo [2] | – | – | – | – | 8440 | –
Danio rerio embryo [5] | 0.192 | – | – | – | – | –
Danio rerio embryo [7] | – | – | 1610 | – | – | –
Danio rerio embryo [10] | – | – | – | 64 | – | –
Danio rerio embryo [11] | – | – | – | – | – | 13100
Danio rerio embryo [12] | – | 3 | – | – | – | –

CC(=O)OCC(=O)[C@@]1(OC(C)=O)[C@@H](C)C[C@H]2[C@@H]3C[C@H](F)C4=CC(=O)C=C[C@]4(C)[C@@]3(F)[C@@H](O)C[C@@]21C [diflorasone diacetate]
Conditions | EC10 Pericard size Increase [nM] | EC20 Pericard size Increase [nM] | EC50 Pericard size Increase [nM] | spontaneous tail coiling frequency
Danio rerio embryo [1], exposure time: 4 dpf | – | – | 2080 | –
Danio rerio embryo [3], exposure time: 4 dpf | 25 | – | – | –
Danio rerio embryo [6], exposure time: 4 dpf | – | 127 | – | –
Danio rerio embryo [8], 0.63 µM | – | – | – | 2.46
Danio rerio embryo [8], 1.2 µM | – | – | – | 2.87
Danio rerio embryo [8], 1.26 µM | – | – | – | 2.52
Danio rerio embryo [8], 2 µM | – | – | – | 2.33
Danio rerio embryo [8], 2.5 µM | – | – | – | 2.17
Danio rerio embryo [8], 3 µM | – | – | – | 1.89
Danio rerio embryo [8], 4 µM | – | – | – | 2.36
Danio rerio embryo [8], 6 µM | – | – | – | 2.7
Danio rerio embryo [8], 10.1 µM | – | – | – | 1.56

Conditions | EC10 Bladder size Decrease [nM] | EC10 Eye-jaw distance Decrease [nM] | EC10 Lack of SB [nM] | EC20 Bladder size Decrease [nM] | EC20 Eye-jaw distance Decrease [nM] | EC20 Lack of SB [nM] | EC50 Bladder size Decrease [nM] | EC50 Eye-jaw distance Decrease [nM] | EC50 Lack of SB [nM]
Danio rerio embryo [10] | – | – | – | – | 41 | – | – | – | –
Danio rerio embryo [11] | – | – | – | – | – | – | – | 2380 | –
Danio rerio embryo [12] | – | 4 | – | – | – | – | – | – | –
Danio rerio embryo [13] | – | – | – | 66 | – | – | – | – | –
Danio rerio embryo [14] | – | – | – | – | – | – | 176 | – | –
Danio rerio embryo [15] | – | – | – | – | – | – | – | – | 379
Danio rerio embryo [16] | 37 | – | – | – | – | – | – | – | –
Danio rerio embryo [17] | – | – | 45 | – | – | – | – | – | –
Danio rerio embryo [18] | – | – | – | – | – | 99 | – | – | –
